This passage reports IC50 results from patent US7157596B2, “Inhibitors of serine protease activity of matriptase or MTSP1” (Dendreon Corporation, priority 2000, dated 2007).

Some results are limits rather than exact numbers.

Common to all, as to format: biochemical
The target in test [1] is T1, recombinant serine protease domain of matriptase or MTSP1 (rMAP) (Homo sapiens, UniProt Q9Y5Y6).
T1 construct: host or cells: Pichia pastoris SMD1168 / pPIC9K-MTSP1
T1 sequence (Q9Y5Y6 615-855): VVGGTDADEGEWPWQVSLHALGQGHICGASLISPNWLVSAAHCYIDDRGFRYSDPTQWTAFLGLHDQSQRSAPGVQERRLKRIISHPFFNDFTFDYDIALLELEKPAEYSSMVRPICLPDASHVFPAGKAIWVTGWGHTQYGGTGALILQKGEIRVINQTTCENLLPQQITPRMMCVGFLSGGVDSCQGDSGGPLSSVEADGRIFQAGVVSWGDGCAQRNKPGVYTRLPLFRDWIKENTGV
As to the kind of experiment: Amidolytic assay for inhibition of serine protease activity of matriptase or MTSP1 (rMAP). The following applies: 30 min preincubation of compound and rMAP; substrate S-2765. On the procedure:
The ability of the compounds of the present invention to act as inhibitors of rMAP catalytic activity was assessed by determining the inhibitor-induced inhibition of amidolytic activity by the MAP, as measured by IC50 values.
The assay buffer was HBSA (10 mM Hepes, 150 mM sodium chloride, pH 7.4, 0.1% bovine serum albumin). All reagents were from Sigma Chemical Co. (St. Louis, Mo.), unless otherwise indicated.
Two IC50 assays (a) one at either 30-minutes or 60-minutes (a 30-minute or a 60-minute preincubation of test compound and enzyme) and (b) one at 0-minutes (no preincubation of test compound and enzyme) were conducted. […] Following either a 30-minute or a 60-minute incubation at ambient temperature, the assay was initiated by the addition of 50 microliters of the substrate S-2765 (N-α-Benzyloxycarbonyl-D-arginyl-L-glycyl-L-arginine-p-nitroaniline dihydrochloride; DiaPharma Group, Inc.; Franklin, Ohio) to each well, yielding a final assay volume of 200 microliters and a final substrate concentration of 100 μM (about 4-times Km). Before addition to the assay mixture, S-2765 was reconstituted in deionized water and diluted in HBSA. For the IC50 assay at 0 minutes; the same reagents were combined: 50 microliters of HBSA, 50 microliters of the test compound, diluted (covering the identical concentration range) in HBSA (or HBSA alone for uninhibited velocity measurement), and 50 microliters of the substrate S-2765. The assay was initiated by the addition of 50 microliters of rMAP. The final concentrations of all components were identical in both IC50 assays (at 30- or 60- and 0-minute).
The initial velocity of chromogenic substrate hydrolysis was measured in both assays by the change of absorbance at 405 nm using a Thermo Max® Kinetic Microplate Reader (Molecular Devices) over a 5 minute period, in which less than 5% of the added substrate was utilized. The concentration of added inhibitor, which caused a 50% decrease in the initial rate of hydrolysis was defined as the respective IC50 value in each of the two assays (30- or 60-minutes and 0-minute).

The next test addresses T2, Factor Xa (Homo sapiens, UniProt P00742).
T2 construct: purchased Enzyme Research Laboratories, Inc. (South Bend, Ind.)
Briefly: In vitro enzyme assay for specificity: Factor Xa. Conditions: 30 min preincubation; substrate S-2765; read-out: FXa IC50 30 Min. On the procedure:
(§1) The ability of compounds to act as a selective inhibitor of matriptase activity was assessed by determining the concentration of test-compound which inhibited the activity of matriptase by 50%, (IC50) as described in Example A, and comparing IC50 value for matriptase to that determined for all or some of the following serine proteases: thrombin, recombinant tissue plasminogen activator (rt-PA), plasmin, activated protein C, chymotrypsin, factor Xa and trypsin.
(§2) The buffer used for all assays was HBSA (10 mM HEPES, pH 7.5, 150 mM sodium chloride, 0.1% bovine serum albumin).
(§3) The assay for IC50 determinations was conducted by combining in appropriate wells of a Corning microtiter plate, 50 microliters of HBSA, 50 microliters of the test compound at a specified concentration (covering a broad concentration range) diluted in HBSA (or HBSA alone for V0 (uninhibited velocity) measurement), and 50 microliters of the enzyme diluted in HBSA. Following a 30 minute incubation at ambient temperature, 50 microliters of the substrate at the concentrations specified below were added to the wells, yielding a final total volume of 200 microliters. The initial velocity of chromogenic substrate hydrolysis was measured by the change in absorbance at 405 nm using a Thermo Max® Kinetic Microplate Reader over a 5 minute period in which less than 5% of the added substrate was utilized. The concentration of added inhibitor which caused a 50% decrease in the initial rate of hydrolysis was defined as the IC50 value.
Factor Xa catalytic activity was determined using the chromogenic substrate S-2765 (N-benzyloxycarbonyl-D-arginine-L-glycine-L-arginine-p-nitro aniline), obtained from DiaPharma Group (Franklin, Ohio). All substrates were reconstituted in deionized water prior to use. […] Purified human Factor X was obtained from Enzyme Research Laboratories, Inc. (South Bend, Ind.) and Factor Xa (FXa) was activated and prepared from it as described [Bock, P. E., Craig, P. A., Olson, S. T., and Singh, P. Arch. Biochem. Biophys. 273:375–388 (1989)]. The enzyme was diluted into HBSA prior to assay in which the final concentration was 0.25 nM.

The target in another test is T3, human α-thrombin (Homo sapiens, UniProt P00734).
T3 construct: Purified human α-thrombin was obtained from Enzyme Research Laboratories, Inc; purchased Enzyme Research Laboratories, Inc
Briefly: In vitro enzyme assay for specificity: Thrombin (fIIa). The following applies: 30 min preincubation; substrate Pefachrome t-PA. On the procedure:
as §1, §2, §3
Enzyme activity was determined using the chromogenic substrate, Pefachrome t-PA (CH3SO2-D-hexahydrotyrosine-glycyl-L-Arginine-p-nitroaniline, obtained from Pentapharm Ltd.). The substrate was reconstituted in deionized water prior to use. Purified human α-thrombin was obtained from Enzyme Research Laboratories, Inc. The buffer used for all assays was HBSA (10 mM HEPES, pH 7.5, 150 mM sodium chloride, 0.1% bovine serum albumin).
The initial velocity of Pefachrome t-PA hydrolysis was measured by the change in absorbance at 405 nm using a Thermo Max® Kinetic Microplate Reader over a 5 minute period in which less than 5% of the added substrate was utilized. The concentration of added inhibitor which caused a 50% decrease in the initial rate of hydrolysis was defined as the IC50 value.

Another test deals with T4, human plasmin (Homo sapiens, UniProt P00747).
T4 construct: Purified human plasmin was obtained from Enzyme Research Laboratories, Inc; purchased Enzyme Research Laboratories, Inc
Briefly: In vitro enzyme assay for specificity: Plasmin. Conditions: 30 min preincubation; substrate S-2366. On the procedure: as §1, §2, §3
Plasmin catalytic activity was determined using the chromogenic substrate, S-2366 [L-pyroglutamyl-L-prolyl-L-arginine-p-nitroaniline hydrochloride], which was obtained from DiaPharma group. The substrate was made up in deionized water followed by dilution in HBSA prior to the assay in which the final concentration was 300 micromolar (about 2.5-times Km). Purified human plasmin was obtained from Enzyme Research Laboratories, Inc. The enzyme was diluted into HBSA prior to assay in which the final concentration was 1.0 nM.

The target in test [2] is T5, bovine pancreatic trypsin (Bos taurus, UniProt P00760).
T5 construct: Purified (3×-crystallized; TRL3) bovine pancreatic trypsin was obtained from Worthington Biochemical Corp; purchased Worthington Biochemical Corp. TRL3; host or cells: bovine pancreas
T5 sequence (P00760 24-246): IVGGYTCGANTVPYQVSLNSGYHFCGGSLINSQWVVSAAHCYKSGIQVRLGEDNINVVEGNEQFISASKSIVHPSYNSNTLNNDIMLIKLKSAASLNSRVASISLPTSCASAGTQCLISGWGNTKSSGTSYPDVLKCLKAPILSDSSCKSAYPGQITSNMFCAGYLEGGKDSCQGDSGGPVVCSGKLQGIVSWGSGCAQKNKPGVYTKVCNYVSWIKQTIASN
As to the kind of experiment: In vitro enzyme assay for specificity: Trypsin. The following applies: 30 min preincubation; substrate S-2222; read-out: Thypsin IC50 30 Min. On the procedure: as §1, §2, §3
Trypsin catalytic activity was determined using the chromogenic substrate, S-2222 (benzoyl-L-isoleucine-L-glutamic acid-[gamma-methyl ester]-L-arginine-p-nitroanilide), which was obtained from DiaPharma Group. […] Purified (3×-crystallized; TRL3) bovine pancreatic trypsin was obtained from Worthington Biochemical Corp. The enzyme was reconstituted in deionized water and diluted into HBSA prior to assay in which the final concentration was 0.5 nM.

T2 sequence (P00742 235-488 limits assumed): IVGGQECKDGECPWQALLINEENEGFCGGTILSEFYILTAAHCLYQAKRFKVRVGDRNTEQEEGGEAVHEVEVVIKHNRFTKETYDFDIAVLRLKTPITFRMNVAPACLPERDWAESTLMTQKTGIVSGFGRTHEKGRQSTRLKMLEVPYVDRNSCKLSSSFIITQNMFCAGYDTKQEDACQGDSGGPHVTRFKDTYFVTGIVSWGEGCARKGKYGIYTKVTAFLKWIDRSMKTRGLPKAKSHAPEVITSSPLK
T2 sequence (P00742 41-179 partner limits assumed): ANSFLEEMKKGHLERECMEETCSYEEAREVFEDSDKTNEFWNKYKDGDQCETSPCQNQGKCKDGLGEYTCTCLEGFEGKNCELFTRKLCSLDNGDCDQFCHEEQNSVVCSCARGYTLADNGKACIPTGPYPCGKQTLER
T4 sequence (P00747 581-810 limits assumed): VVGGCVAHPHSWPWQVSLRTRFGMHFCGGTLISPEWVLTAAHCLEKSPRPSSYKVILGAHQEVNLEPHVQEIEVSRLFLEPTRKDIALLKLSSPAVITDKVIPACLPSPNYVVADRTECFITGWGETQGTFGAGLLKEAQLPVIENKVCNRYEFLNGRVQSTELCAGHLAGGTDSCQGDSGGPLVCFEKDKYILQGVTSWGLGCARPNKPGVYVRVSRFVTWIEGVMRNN
T4 sequence (P00747 97-580 partner limits assumed): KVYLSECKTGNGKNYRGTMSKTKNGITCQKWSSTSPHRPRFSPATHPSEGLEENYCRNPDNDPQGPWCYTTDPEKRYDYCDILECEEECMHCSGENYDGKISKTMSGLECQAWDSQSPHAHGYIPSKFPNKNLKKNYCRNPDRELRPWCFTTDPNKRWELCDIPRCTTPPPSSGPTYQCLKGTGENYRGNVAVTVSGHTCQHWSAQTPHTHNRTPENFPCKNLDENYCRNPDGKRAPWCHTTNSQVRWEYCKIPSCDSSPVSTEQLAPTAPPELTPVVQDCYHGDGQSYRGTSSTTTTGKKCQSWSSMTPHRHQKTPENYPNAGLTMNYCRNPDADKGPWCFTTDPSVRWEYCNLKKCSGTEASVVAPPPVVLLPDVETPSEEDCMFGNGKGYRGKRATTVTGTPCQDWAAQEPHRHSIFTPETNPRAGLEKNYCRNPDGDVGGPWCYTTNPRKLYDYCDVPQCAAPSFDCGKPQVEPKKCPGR

With `N=C(N)NCCC[C@@H](C=O)NC(=O)CNC(=O)[C@@](N)(CCC(=O)O)Cc1cccc(C(=N)N)c1` [A], the 50% inhibitory concentration (IC50) (as a rule, the concentration needed to halve the response being measured) was below 100 nM in test [1]; above 2500 nM on Factor Xa; above 2500 nM against human α-thrombin; 500 to 2500 nM against human plasmin; 250 to 500 nM in test [2].

Turning to `N=C(N)NCCCC(C=O)NC(=O)CNC(=O)C(CCC(=O)O)(Cc1cccc(C(=N)N)c1)NS(=O)(=O)Cc1ccccc1` (stereo not drawn) [B], the IC50 is below 100 nM in test [1]; above 2500 nM at Factor Xa; 500 to 2500 nM against human α-thrombin; above 2500 nM on human plasmin; above 2500 nM in test [2].

As for `COC(=O)CCC(N)(Cc1cccc(C(=N)N)c1)C(=O)NCC(=O)NC(C=O)CCCNC(=N)N` (stereo not drawn) [C], the half-maximal inhibitory concentration (IC50) in test [1] is below 100 nM; at Factor Xa it was above 2500 nM; on human α-thrombin it was above 2500 nM; at human plasmin, 500 to 2500 nM; in test [2] it was 500 to 2500 nM.

Turning to `COC(=O)N[C@](CCC(=O)O)(Cc1cccc(C(=N)N)c1)C(=O)NCC(=O)N[C@H](C=O)CCCNC(=N)N` [D], the IC50 was below 100 nM in test [1]; above 2500 nM at Factor Xa; above 2500 nM against human α-thrombin; above 2500 nM against human plasmin; above 2500 nM in test [2].

As for `CC(=O)N[C@](CCC(=O)O)(Cc1cccc(C(=N)N)c1)C(=O)NCC(=O)N[C@H](C=O)CCCNC(=N)N` [E], the IC50 is below 100 nM in test [1]; above 2500 nM on Factor Xa; above 2500 nM against human α-thrombin; above 2500 nM on human plasmin; above 2500 nM in test [2].

Regarding `COC(=O)N[C@](CCC(=O)O)(Cc1cccc(C(=N)N)c1)C(=O)N[C@@H](C)C(=O)N[C@H](C=O)CCCNC(=N)N` [F], the IC50 was below 100 nM in test [1]; above 2500 nM on Factor Xa; above 2500 nM on human α-thrombin; 500 to 2500 nM at human plasmin; 500 to 2500 nM in test [2].

For the compound `COC(=O)N[C@](CCC(=O)O)(Cc1cccc(C)c1)C(=O)N[C@@H](C)C(=O)N[C@H](C=O)CCCNC(=N)N` [G], the 50% inhibitory concentration (IC50) in test [1] was below 100 nM; at Factor Xa, above 2500 nM; against human α-thrombin, above 2500 nM; against human plasmin, 500 to 2500 nM; in test [2], below 100 nM.

For `CCNC(=O)N[C@](CCC(=O)O)(Cc1cccc(C(=N)N)c1)C(=O)NCC(=O)N[C@H](C=O)CCCNC(=N)N` [H], the IC50 is below 100 nM in test [1]; above 2500 nM on Factor Xa; above 2500 nM against human α-thrombin; above 2500 nM at human plasmin; above 2500 nM in test [2].

Consider `COC(=O)N[C@](CCC(=O)O)(Cc1ccccc1)C(=O)NCC(=O)N[C@H](C=O)CCCNC(=N)N` [I], for which the half-inhibitory concentration (IC50) in test [1] was below 100 nM; at Factor Xa it was 500 to 2500 nM; at human α-thrombin it was above 2500 nM; on human plasmin, above 2500 nM; in test [2], 500 to 2500 nM.

Turning to `CCOC(=O)N[C@](CCC(=O)O)(Cc1cccc(C(=N)N)c1)C(=O)NCC(=O)N[C@H](C=O)CCCNC(=N)N` [K], the IC50 was below 100 nM in test [1]; above 2500 nM at Factor Xa; above 2500 nM against human α-thrombin; above 2500 nM at human plasmin; above 2500 nM in test [2].

As to `CC(C)COC(=O)N[C@](CCC(=O)O)(Cc1cccc(C(=N)N)c1)C(=O)NCC(=O)N[C@H](C=O)CCCNC(=N)N` [L], the IC50 in test [1] is below 100 nM; at Factor Xa it was above 2500 nM; against human α-thrombin, above 2500 nM; at human plasmin it was above 2500 nM; in test [2] it was above 2500 nM.

Consider `N=C(N)NCCC[C@@H](C=O)NC(=O)CNC(=O)[C@@](CCC(=O)O)(Cc1cccc(C(=N)N)c1)NC(=O)Oc1ccccc1` [M], for which the IC50 in test [1] was below 100 nM; on Factor Xa, 500 to 2500 nM; against human α-thrombin, above 2500 nM; on human plasmin it was above 2500 nM; in test [2] it was 250 to 500 nM.
